Assay results published in patent publication EP0761667A1, “Heterocyclic substituted pseudopeptides” (BAYER AG, priority 1995, dated 1997).
Where two headings read alike, the source gives them in different places.

Assays:
HIV = HIV infection in cell culture (PBL), microscopic evaluation of syncytia formation; format: cell-based; conditions: HIV-infected normal human blood lymphocytes (PBL's), day 3 to 6 after infection; for IC50: Human immunodeficiency virus 1, Lymphocyte, 72 h, 50% suppression of virus-induced syncytia; for PBL IC95: suppression of virus-induced syncytia
Experimental: HIV-Infektion in Zellkultur
Der HIV-Test wurde mit geringen Modifikationen nach der Methode von Pauwels et al. [vgl. Journal of Virological Methods 20, (1988), 309-321] durchgeführt.
Normale menschliche Blutlymphozyten (PBL's) wurden über Ficoll-Hypaque angereichert und im RPMI 1640, 20% fötales Kälberserum mit Phytohaemagglutinin (90 µg/ml) und Interleukin-2 (40 U/ml) stimuliert. Zur Infektion mit dem infektiösen HIV wurden PBL's pelletiert und das Zellpellet wurde anschließend in 1 ml HIV-Virusadsorptionslösung suspendiert und 1 Stunde bei 37°C inkubiert.
Die Virusadsorptionslösung wurde zentrifugiert und das infizierte Zellpellet in Wachstumsmedium aufgenommen, so daß 1 x 10^5 Zellen pro ml eingestellt waren. Die derart infizierten Zellen wurden zu 1 x 10^4 Zellen/Napf in die Näpfe von 96er Mikrotiterplatten pipettiert.
Die erste vertikale Reihe der Mikrotiterplatte enthielt nur Wachstumsmedium und Zellen, die nicht infiziert, aber ansonsten genauso wie oben beschrieben, behandelt worden waren (Zellkontrolle). Die zweite vertikale Reihe der Mikrotiterplatte erhielt nur HIV-infizierte Zellen (Viruskontrolle) in Wachstumsmedium. Die übrigen Näpfe enthielten die erfindungsgemäßen Verbindungen in unterschiedlichen Konzentrationen, ausgehend von den Näpfen der 3. vertikalen Reihe der Mikrotiterplatte, von der die Prüfsubstanzen in 2er Schritten 2^10fach verdünnt wurden.
Die Testansätze wurden so lange bei 37°C inkubiert, bis in der unbehandelten Viruskontrolle die für das HIV typische Syncytienbildung auftrat (zwischen Tag 3 und 6 nach Infektion), die dann mikroskopisch ausgewertet wurde. In der unbehandelten Viruskontrolle resultierten unter diesen Testbedingungen etwa 20 Syncytien, während die unbehandelte Zellkontrolle keine Syncytien aufwies.
Die IC50-Werte wurden als die Konzentration der behandelten und infizierten Zellen ermittelt, bei der 50% (ca. 10 Syncytien) der virusinduzierten Syncytien durch die Behandlung mit der erfindungsgemäßen Verbindung unterdrückt waren. […]

HIV-1-Protease = target: T1, HIV-1-Protease (Human immunodeficiency virus type 1 group M subtype B, UniProt P04585); test: HIV-specific protease enzyme test (purified HIV protease, synthetic peptide substrate, RP-HPLC analysis of cleavage products); format: biochemical
T1 construct: Gereinigte HIV-Protease wurde mit synthetischem Peptid
From the text: Es wurde überraschend gefunden, daß die Verbindungen der allgemeinen Formel (I) eine außerordentlich starke Wirkung gegen Retroviren besitzen. Dies wird mit einem HIV-spezifischen Protease-Enzymtest belegt.
Die Ergebnisse der unten aufgeführten Beispiele wurden nach dem in der folgenden Literaturangabe [vgl. Hansen, J., Billich, S., Schulze, T., Sukrow, S. and Mölling, K. (1988), EMBO Journal, Vol, 7, No. 6, pp. 1785 - 1791] beschriebenen HIV-Testsystem ermittelt: Gereinigte HIV-Protease wurde mit synthetischem Peptid, das eine Schnittstelle im Gag-Precursor-Protein imitiert und eine in vivo-Spaltstelle der HIV-Protease darstellt, inkubiert. Die entstandenen Spaltprodukte des synthetischen Peptids wurden über Reverse Phase High Performance Liquid Chromatography (RP-HPLC) analysiert. […]

[1] = purified HIV protease, synthetic peptide imitating a Gag precursor cleavage site, concentration giving 50% inhibition of protease activity, read-out: HIV-1-Protease-Inhibition IC50
[2] = purified HIV protease, synthetic peptide imitating a Gag precursor cleavage site

| SMILES | IC50 (HIV) [nM] | IC50 (HIV-1-Protease; [1]) [nM] | PBL IC95 (HIV) | HIV-1-Protease-Inhibition IC95 (HIV-1-Protease; [2]) | IC50 (HIV-1-Protease) [nM] |
| --- | --- | --- | --- | --- | --- |
| O=C(N[C@@H](Cc1ccccc1)[C@H](O)CN1[C@H](C(F)(F)F)C[C@@H]2CCC[C@@H]21)OC1CCS(=O)(=O)C1 (stereo partly shown) [Beispiel 7] | 6200 | 25 | – | – | – |
| O=C(N[C@@H](Cc1ccccc1)[C@H](O)CN1[C@H](C(F)(F)F)C[C@@H]2CCC[C@@H]21)OC1C=CS(=O)(=O)C1 (stereo partly shown) [Beispiel 8] | 17000 | 3.2 | >2e-05 mol/L | 4,1 x 10^-8 Mol/l | – |
| O=C(N[C@@H](Cc1ccccc1)[C@H](O)CN1[C@H](C(F)(F)F)C[C@@H]2CCC[C@@H]21)OC1CCOC1 (stereo partly drawn) [Beispiel 5, (2R,3S)-3-(Tetrahydrofuran-3-yl-oxycarbonyl)-amino-1-{(S,S,S)-3-trifluormethyl-2-azabicyclo[3.3.0]octan-2-yl}-2-hydroxy-4-phenylbutan] | 14000 | – | 2,2 x 10^-5 Mol/l | 4,7 x 10^-8 Mol/l | 4.1 |
| NC(=O)C[C@H](NC(=O)OC1C=CS(=O)(=O)C1)C(=O)N[C@@H](Cc1ccccc1)[C@H](O)CN1[C@H](C(F)(F)F)C[C@@H]2CCC[C@@H]21 (stereo partly shown) [Beispiel 4] | > 16000 | 2.1 | – | 3,9 x 10^-9 Mol/l | – |
| NC(=O)C[C@H](NC(=O)OC1CCS(=O)(=O)C1)C(=O)N[C@@H](Cc1ccccc1)[C@H](O)CN1[C@H](C(F)(F)F)C[C@@H]2CCC[C@@H]21 (stereo partly shown) [Beispiel 3] | 1200 | 9.5 | 1,9 x 10^-6 Mol/l | – | – |
| O=C(N[C@@H](Cc1ccccc1)[C@H](O)CN1[C@H](C(F)(F)F)C[C@@H]2CCC[C@@H]21)O[C@H]1CCOC1 [Beispiel 6] | 2800 | 25 | 1,3 x 10^-5 Mol/l | 5,0 x 10^-8 Mol/l | – |
| NC(=O)C[C@H](NC(=O)OC1CCOC1)C(=O)N[C@@H](Cc1ccccc1)[C@H](O)CN1[C@H](C(F)(F)F)C[C@@H]2CCC[C@@H]21 (stereo partly drawn) [Beispiel 1, (2S,3S)-3-(Tetrahydrofuran-3-yl-oxycarbonyl-L-asparaginyl)amino-1-[(S,S,S)-3-trifluormethyl-2-azabicyclo[3.3.0]octan-2-yl}-2-hydroxy-4-phenylbutan] | 2200 | – | 3,5 x 10^-6 Mol/l | 3,8 x 10^-7 Mol/l | 30 |
| NC(=O)C[C@H](NC(=O)O[C@H]1CCOC1)C(=O)N[C@@H](Cc1ccccc1)[C@H](O)CN1[C@H](C(F)(F)F)C[C@@H]2CCC[C@@H]21 [Beispiel 2] | 2000 | 0.27 | 3,5 x 10^-6 Mol/l | 3,6 x 10^-9 Mol/l | – |
